Measurements from patent publication US10766890B2, “Hepatitis B core protein modulators” (Assembly Biosciences, Inc., priority 2015, dated 2020).

How the values were obtained:
[1] = system: AD38 cells; test: Viability of AD38 cells, Promega CellTiter-Glo; assay type: cell-based; settings: 10 μM compound, 6 days, CellTiter-Glo luminescence, controls being 100%
Protocol: (§1) Example 63: Assay Measuring Activity of Compounds on Viral Production in and on Viability of AD38 Cells
(§2) AD38 cells were then re-suspended with 10 mL of Treatment Medium and counted. Wells of a collagen coated 96-well NUNC microtiter plate were seeded at 50,000/well in 180 μL of Treatment Medium, and 20 μL of in treatment media with either 10% DMSO (Control) or a 10× solution of compound in 10% DMSO was added. Plates were incubated for 6 days at 37° C.
At the end of compound treatment period cell viability was assessed using a Promega CellTiter-Glo protocol. All supernatant was removed the previously treated 96-well microtiter plate, and 50 μL Tetracycline-free treatment medium (DMEM/F12 (1:1), 1×Pen/step (cat#: 30-002-CL, Mediatech, Inc), with 2% FBS, Tet-system approved (cat#: 631106, Clontech), and 1% DMSO was added back to each well. Another 50 μL of CellTiter-Glo reagent solution (Promega, G7573) was then added at room temperature and the contents mixed for 2 minutes on an orbital shaker to induce cell lysis. This was followed by incubation at room temperature for 10 minutes to stabilize the luminescent signal. The luminescence was recorded for 0.2 seconds per well on a Tecan multimode platereader (Infinite M1000 pro). The luminescent signal from each well was normalized against that of untreated (DMSO) control wells. All results in Table 3 were reported with percent viability (with controls being 100%).

[2] = system: HBV; test: Viral load production in AD38 cells, quantitative PCR of the core sequence in supernatant; assay type: cell-based; settings: 10 μM compound, 6 days at 37° C., supernatant qPCR vs DMSO control; for activity at 10 µM: Hepatitis B virus, 144 h, read-out: AD38 Viral Load (%) (VL with cmpd/VL in DMSO control) at 10 μM
Protocol: as §1, §2
Viral load production was assayed by quantitative PCR of the core sequence. […] The PCR mixture was incubated at 45° C. for 5 minutes, then 95° C. for 10 min, followed by 40 cycles of 10 seconds at 95° C. and 20 seconds at 60° C. Viral load was quantitated against known standards by using ViiA™ 7 Software. Viral load in the supernatant from wells with treated cells were compared against viral load in supernatant from DMSO control wells (≥3 per plate).

Molecule	AD38 Viability Normalized Result (cmpd/DMSO %) at 10 μM [1] [%]	AD38 Viral Load (%) (VL with cmpd/VL in DMSO control) at 10 μM [2]	activity at 10 µM [2] [%]
11-oxo-N-(4-(4-((2,2,2-trifluoroacetyl)-λ^4-azanyl)butoxy) phenethyl)-10,11-dihydrodibenzo[b, f][1,4]thiazepine-8-carboxamide 5,5-dioxide [Compound 482]	101	16.3	–
O=C(NCCOc1ccc(F)cc1)c1ccc2c(c1)NC(=O)c1ccccc1S2(=O)=O [Compound 469]	100	–	4.1
O=C(NCC(c1ccccc1)N1CCCC1)c1ccc2c(c1)NC(=O)c1ccccc1S2(=O)=O (stereo not shown) [Compound 471]	103	–	72.6
O=C(NCCC(c1ccccc1)N1CCCC1)c1ccc2c(c1)NC(=O)c1ccccc1S2(=O)=O (stereo not shown) [Compound 472]	105	–	32.6
O=C(NCCc1ccc(-c2cnn[nH]2)cc1)c1ccc2c(c1)NC(=O)c1ccccc1S2(=O)=O [Compound 475, N-(4-(1H-1,2,3-triazol-5-yl)phenethyl)-11-oxo-10,11-dihydrodibenzo[b,f][1,4]thiazepine-8-carboxamide 5,5-dioxide]	96	–	0.7
O=C(NCCCCOc1ccc(CCNC(=O)c2ccc3c(c2)NC(=O)c2ccccc2S3(=O)=O)cc1)OCc1ccccc1 [Compound 481]	91	–	0.5
CN1c2ccc(C(=O)NCCc3ccc(S(=O)(=O)N(C)C)cc3)cc2NC(=O)c2ccccc21 [Compound 498]	76	–	13.8
CCN1c2ccc(C(=O)NCCc3ccc(S(=O)(=O)N(C)C)cc3)cc2NC(=O)c2ccccc21 [Compound 501]	91	–	5.5
O=C(NCCc1ccc(-c2ccccc2)cc1)c1ccc2c(c1)NC(=O)c1ccccc1N2 [Compound 508]	103	–	59.1
CN(C)S(=O)(=O)c1ccc(CCNC(=O)c2ccc3c(c2)NC(=O)c2ccccc2N3)cc1 [Compound 510]	92	–	21.4
CCC(CNC(=O)c1ccc2c(c1)NC(=O)c1ccccc1S2(=O)=O)c1ccccc1 (stereo not shown) [Compound 530]	92	–	5
O=C(NCCc1ccc(-c2ccc(F)cc2)cc1)c1ccc2c(c1)NC(=O)c1ccccc1S2(=O)=O [Compound 533]	3	–	0.6
O=C(NCc1ccc(-c2cncnc2)cc1)c1ccc2c(c1)NC(=O)c1ccccc1S2 [Compound 537]	100	–	51.5
O=C(NCCc1ccc(-c2ccc(F)cc2)cc1)c1ccc2c(c1)NC(=O)c1ccccc1S2 [Compound 538]	62	–	8.1
O=C(NCc1ccc(-c2ccccc2)cc1)c1ccc2c(c1)NC(=O)c1ccccc1S2(=O)=O [Compound 563]	59	–	0.9
O=C(NCc1ccc(-c2ccc(F)cc2)cc1)c1ccc2c(c1)NC(=O)c1ccccc1S2(=O)=O [Compound 564]	29	–	0.9
O=C(NCc1cccc(-c2ccccc2)c1)c1ccc2c(c1)NC(=O)c1ccccc1S2(=O)=O [Compound 565]	105	–	1.5
